Data from patent US5248684A, “Certain 2-oxo-quinoline carboxylates or corresponding carboxamides useful as anti-emetics and suppressants of migraine” (Kyowa Hakko Kogyo Co., Ltd., priority 1990, dated 1993).

Columns and labels:
[1] = test system: Cisplatin-induced vomiting; experiment: Activity against CisPlatin-induced vomiting; type: in vivo, Suncus murinus; details: 30 min before Cisplatin 40 mg/kg i.p.; for Number of Vomiting (Episodes) (mean ± S.E.M.): 5 to 120 min, control 28.0 ± 6.7; for Latency (mean ± S.E.M.): time to first vomiting, control 35.1 ± 4.4
Method: b) Activity against CisPlatin-induced vomiting
Female and male Suncus murinus animals weighing 23 to 68 g were used, one group consisting of 5 to 10 animals. According to the method of Matsuki et al. (Japan J. Pharmacol., 48, 303 (1988)], the animals were isolated in metal mesh cage (one animal/one cage). One hour after, the test compound or physiological saline (control) was intraperitoneally administered (i.p.) in a volume of 0.1 ml/10 g of body weight. Further 30 minutes after administration of the test compound, Cisplatin (40 mg/kg) was intraperitoneally administered. After administration of Cisplatin, a time period (latency) for the first vomiting and the number of frequencies (episodes) of vomiting caused in the period of 5 to 120 minutes after administration were determined. The latency and the number of frequencies in the test compound administered group were compared with those in the control group. The test of significance was performed by Student's t-test.

ddY strain male mice = experiment: Acute toxicity (MLD, Minimum Lethal Dose); type: in vivo; details: 7 days observation
Method: The test compound was orally and intraperitoneally administered to ddY strain male mice weighing 20 to 25 g. MLD (Minimum Lethal Dose) was determined by observing the mortality for 7 days after the administration.

## CCCCn1c(=O)cc(C(=O)O[C@H]2C[C@H]3CC[C@@H](C2)N3C)c2ccccc21 [Compound 1Sa, Endo-(8-methyl-8-azabicyclo[3.2.1]oct-3-yl)-1-(n-butyl)-2-oxo-1,2-dihydro-4-quinolinecarboxylate]
[1]; 0.1 mg/kg i.p.
  Number of Vomiting (Episodes) (mean ± S.E.M.): 18.0 ± 1.6 Episodes
  Latency (mean ± S.E.M.): 44.3 ± 2.0 min
[1]; 0.5 mg/kg i.p., *p < 0.05
  Number of Vomiting (Episodes) (mean ± S.E.M.): 6.8 ± 2.0 Episodes
  Latency (mean ± S.E.M.): 71.5 ± 12.9 min
ddY strain male mice; i.p.
  MLD (Minimum Lethal Dose): 100 mg/kg
ddY strain male mice; p.o.
  MLD (Minimum Lethal Dose): 200 mg/kg

## CCCn1c(=O)cc(C(=O)O[C@H]2C[C@H]3CC[C@@H](C2)N3C)c2ccccc21 [Compound 2Sa, Endo-(8-methyl-B-azabicyclo[3.2.1]oct-3-yl)2-oxo-l-(n-propyl)-1,2-dihydro-4-quinolinecarboxylate]
ddY strain male mice; i.p.
  MLD (Minimum Lethal Dose): 100 mg/kg
ddY strain male mice; p.o.
  MLD (Minimum Lethal Dose): 200 mg/kg

## CC(C)n1c(=O)cc(C(=O)O[C@H]2C[C@H]3CC[C@@H](C2)N3C)c2ccccc21 [Compound 3Sa, Endo-(8-methyl-8-azabicyclo[3.2.1]oct-3-yl)l-isopropyl-2-oxo-1,2-dihydro-4-quinolinecarboxylate]
ddY strain male mice; i.p.
  MLD (Minimum Lethal Dose): 100 mg/kg
ddY strain male mice; p.o.
  MLD (Minimum Lethal Dose): 200 mg/kg

## CCCCn1c(=O)cc(C(=O)N[C@H]2C[C@H]3CC[C@@H](C2)N3C)c2ccccc21 [Compound 6Sa, Endo-N-(8-methyl-8-azabicyclo[3.2.1]oct-3-yl)-1-(n-butyl)-2-oxo-1,2-dihydro-4-quinolinecarboxamide]
ddY strain male mice; i.p.
  MLD (Minimum Lethal Dose): > 100 mg/kg
ddY strain male mice; p.o.
  MLD (Minimum Lethal Dose): > 300 mg/kg

## CCCn1c(=O)cc(C(=O)N[C@H]2C[C@H]3CC[C@@H](C2)N3C)c2ccccc21 [Compound 7Sa, Endo-N-(8-methyl-8-azabicyclo[3.2.1]oct-3-yl)-1-(n-propyl)-2-oxo-1,2-dihydro-4-quinolinecarboxamide]
ddY strain male mice; i.p.
  MLD (Minimum Lethal Dose): > 100 mg/kg
ddY strain male mice; p.o.
  MLD (Minimum Lethal Dose): > 300 mg/kg

## CN1[C@@H]2CC[C@H]1C[C@@H](NC(=O)c1cc(=O)n(C)c3ccccc13)C2 [Compound 8Sa, Endo-N-(8-methyl-8-azabicyclo[3.2.1]oct-3-yl)-1-methyl-2-oxo-1,2-dihydro-4-quinolinecarboxamide]
ddY strain male mice; i.p.
  MLD (Minimum Lethal Dose): > 100 mg/kg
ddY strain male mice; p.o.
  MLD (Minimum Lethal Dose): > 300 mg/kg

## CCCCn1c(=O)cc(C(=O)N[C@@H]2C[C@H]3CC[C@@H](C2)N3C)c2ccccc21 [Compound 9Sa, Exo-N-(8-methyl-8-azabicyclo[3.2.1]oct-3-yl)-1-(n-butyl)-2-oxo-1,2-dihydro-4-quinolinecarboxamide]
ddY strain male mice; i.p.
  MLD (Minimum Lethal Dose): 100 mg/kg
ddY strain male mice; p.o.
  MLD (Minimum Lethal Dose): > 300 mg/kg

## CCCCn1c(=O)cc(C(=O)N[C@H]2C[C@H]3CCC[C@@H](C2)N3C)c2ccccc21 [Compound 10Sa, Endo-N-(9-methyl-9-azabicyclo[3.3.1]non-3-yl)-1-(n-butyl)-2-oxo-1,2-dihydro-4-quinolinecarboxamide]
ddY strain male mice; i.p.
  MLD (Minimum Lethal Dose): 100 mg/kg
ddY strain male mice; p.o.
  MLD (Minimum Lethal Dose): 300 mg/kg

## CCCCn1c(=O)c(C(=O)N[C@H]2C[C@H]3CC[C@@H](C2)N3C)c(O)c2ccccc21 [Compound 11Sa, Endo-N-(8-methyl-8-azabicyclo[3.2.1]oct-3-yl)-1-(n-butyl)-4-hydroxy-2-oxo-1,2-dihydro-3-quinolinecarboxamide]
ddY strain male mice; i.p.
  MLD (Minimum Lethal Dose): > 100 mg/kg
ddY strain male mice; p.o.
  MLD (Minimum Lethal Dose): > 300 mg/kg

## CCn1c(=O)cc(C(=O)O[C@H]2C[C@H]3CC[C@@H](C2)N3C)c2ccccc21 [Compound 13Sa, Endo-(8-methyl-8-azabicyclo[3.2.1]oct-3-yl) 1-ethyl-2-oxo-1,2-dihydro-4-quinolinecarboxylate]
ddY strain male mice; i.p.
  MLD (Minimum Lethal Dose): 100 mg/kg
ddY strain male mice; p.o.
  MLD (Minimum Lethal Dose): 200 mg/kg

## CC(C)Cn1c(=O)cc(C(=O)O[C@H]2C[C@H]3CC[C@@H](C2)N3C)c2ccccc21 [Compound 14Sa, Endo-(8-methyl-8-azabicyclo[3.2.1]oct-3-yl) 1-isobutyl-2-oxo-1,2-dihydro-4-quinolinecarboxylate]
ddY strain male mice; i.p.
  MLD (Minimum Lethal Dose): 50 mg/kg
ddY strain male mice; p.o.
  MLD (Minimum Lethal Dose): 200 mg/kg

## CC(C)CCn1c(=O)cc(C(=O)O[C@H]2C[C@H]3CC[C@@H](C2)N3C)c2ccccc21 [Compound 15Sa, Endo-(8-methyl-8-azabicyclo[3.2.1]oct-3-yl) 1-isopentyl-2-oxo-1,2-dihydro-4-quinolinecarboxylate]
ddY strain male mice; i.p.
  MLD (Minimum Lethal Dose): 100 mg/kg
ddY strain male mice; p.o.
  MLD (Minimum Lethal Dose): 300 mg/kg

## CCCCCn1c(=O)cc(C(=O)O[C@H]2C[C@H]3CC[C@@H](C2)N3C)c2ccccc21 [Compound 16Sa, Endo-(8-methyl-8-azabicyclo[3.2.1]oct-3-yl)2-oxo-1-n-pentyl-1,2-dihydro-4-quinolinecarboxylate]
ddY strain male mice; i.p.
  MLD (Minimum Lethal Dose): 100 mg/kg
ddY strain male mice; p.o.
  MLD (Minimum Lethal Dose): 300 mg/kg

## CCCCCCn1c(=O)cc(C(=O)O[C@H]2C[C@H]3CC[C@@H](C2)N3C)c2ccccc21 [Compound 17Sa, Endo-(8-methyl-8-azabicyclo[3.2.1]oct-3-yl) 1-(n-hexyl)-2-oxo-1,2-dihydro-4-quinolinecarboxylate]
ddY strain male mice; i.p.
  MLD (Minimum Lethal Dose): 100 mg/kg
ddY strain male mice; p.o.
  MLD (Minimum Lethal Dose): > 300 mg/kg

## CN1[C@@H]2CC[C@H]1C[C@@H](OC(=O)c1cc(=O)n(Cc3ccccc3)c3ccccc13)C2 [Compound 18Sa, Endo-(8-methyl-8-azabicyclo[3.2.1]oct-3-yl) 1-benzyl-2-oxo-1,2-dihydro-4-quinolinecarboxylate]
ddY strain male mice; i.p.
  MLD (Minimum Lethal Dose): 100 mg/kg
ddY strain male mice; p.o.
  MLD (Minimum Lethal Dose): > 300 mg/kg

## CN1[C@@H]2CC[C@H]1C[C@@H](OC(=O)c1cc(=O)n(-c3ccccc3)c3ccccc13)C2 [Compound 19Sa, Endo-(8-methyl-8-azabicyclo[3.2.1]oct-3-yl) 2-oxo-1-phenyl-1,2-dihydro-4-quinolinecarboxylate]
ddY strain male mice; i.p.
  MLD (Minimum Lethal Dose): 100 mg/kg
ddY strain male mice; p.o.
  MLD (Minimum Lethal Dose): 200 mg/kg

## CCCCn1c(=O)c(CC)c(C(=O)O[C@H]2C[C@H]3CC[C@@H](C2)N3C)c2ccccc21 [Compound 20Sa, Endo-(8-methyl-8-azabicyclo[3.2.1)oct-3-yl) 1-(n-butyl)-3-ethyl-2-oxo-1,2-dihydro-4-quinolinecarboxylate]
ddY strain male mice; i.p.
  MLD (Minimum Lethal Dose): 100 mg/kg
ddY strain male mice; p.o.
  MLD (Minimum Lethal Dose): 200 mg/kg

## CN1[C@@H]2CC[C@H]1C[C@@H](OC(=O)c1c(O)c3cccnc3n(-c3ccccc3)c1=O)C2 [Compound 24Sa, Endo-(8-methyl-8-azabicyclo[3.2.1]oct-3-yl) 4-hydroxy-2-oxo-1-phenyl-1,2-dihydro-1,8-naphthylidine-3-carboxylate]
ddY strain male mice; i.p.
  MLD (Minimum Lethal Dose): > 100 mg/kg
ddY strain male mice; p.o.
  MLD (Minimum Lethal Dose): > 300 mg/kg

## CCCCn1c(=O)c(O)c(C(=O)N[C@H]2C[C@H]3CC[C@@H](C2)N3C)c2ccccc21 [Compound 29Sa, Endo-N-(8-methyl-8-azabicyclo[3.2.1]oct-3-yl)-1-n-butyl-3-hydroxy-2-oxo-1,2-dihydro-4-quinolinecarboxamide]
ddY strain male mice; i.p.
  MLD (Minimum Lethal Dose): > 100 mg/kg
ddY strain male mice; p.o.
  MLD (Minimum Lethal Dose): > 300 mg/kg

## CN1[C@@H]2CC[C@H]1C[C@@H](NC(=O)c1c(O)c3ccccc3n(-c3ccccc3)c1=O)C2 [Compound 30Sa, Endo-N-(8-methyl-8-azabicyclo[3.2.1]oct-3-yl)-4-hydroxy-2-oxo-1-phenyl-1,2-dihydro-3-quinolinecarboxamide]
ddY strain male mice; i.p.
  MLD (Minimum Lethal Dose): 100 mg/kg
ddY strain male mice; p.o.
  MLD (Minimum Lethal Dose): > 300 mg/kg

## CCCCn1c(=O)c(C(=O)N[C@H]2C[C@H]3CC[C@@H](C2)N3C)c(O)c2cccnc21 [Compound 32Sa, Endo-N-(8-methyl-azabicyclo[3.2.1]oct-3-yl)-1-(butyl)-4-hydroxy-2-oxo-1,2-dihydro-1,8-naphthyridine-3-carboxamide]
ddY strain male mice; i.p.
  MLD (Minimum Lethal Dose): 100 mg/kg
ddY strain male mice; p.o.
  MLD (Minimum Lethal Dose): > 300 mg/kg
